Experimental data published in patent US20210352950A1 (priority 2019, published 2021).

Assays:
[1] = test system: KRAS mutant cancer cells (HCT116, DLD-1, CT26.WT, H23, H727, PANC1); experiment: Muse cell viability assay, KRAS mutant panel; type: cell-based, human and murine; conditions: CTR condition, vitamin C ≥0.3 mM, 24 hours
HO-1 [2] = experiment: HO-1 expression in HCT116 (qPCR, western blot); type: cell-based, human; conditions: HCT116, CTR, vitamin C 350 μM 3 hours as single intervention
Description: Cells were washed twice in ice-cold PBS and lysates were prepared in RIPA lysis buffer (50 mM Tris HCl pH 7.4, 150 mM NaCl, 1% NP-40, 0.25% deoxycholic acid, 1 mM EDTA) supplemented with protease and phosphatase inhibitors (protease inhibitor cocktail set III EDTA-free, Calbiochem, Cat. #: S39134; PhosStop, Roche), Samples were sonicated (bioruptor plus, diogenode) and centrifuged at 16.1 g for 30 minutes at 4° C. Tumor tissues were collected and snap frozen in liquid nitrogen immediately after mice were sacrificed, and stored in -80° C. until use. […] Protein concentrations were determined by BCA assay (Thermo Fisher Scientific, Cat. #: 23225). Proteins were diluted in 1× Laemmli sample buffer, boiled at 95° C. for 5 minutes and 30 μg of total proteins were separated by using SDS-PAGE and analyzed by western blotting by standard procedures. […] Membranes were incubated overnight at 4° C. with gentle shaking with the following primary antibodies: […] ADI-SPA894), FTH (1:1000, Cell Signaling, Cat. #: 3998), AMPK (1:1000, Cell Signaling, Cat. #: 2532), phospho-[…] […] Bands intensity was quantified with NIH Image J software (version 1.48v). […] Resulting cDNA (1/20 v/v) was analyzed by real-time polymerase reaction (qRT-PCR) using TaqMan MBG probes with FAM reporter dyes. […]

HO-1 [3] = experiment: HO-1 protein expression in CT26.WT (western blot); type: cell-based, murine; conditions: vitamin C 350 μM 3 hours
Description: (§1) Cells were washed twice in ice-cold PBS and lysates were prepared in RIPA lysis buffer (50 mM Tris HCl pH 7.4, 150 mM NaCl, 1% NP-40, 0.25% deoxycholic acid, 1 mM EDTA) supplemented with protease and phosphatase inhibitors (protease inhibitor cocktail set III EDTA-free, Calbiochem, Cat. #: S39134; PhosStop, Roche), Samples were sonicated (bioruptor plus, diogenode) and centrifuged at 16.1 g for 30 minutes at 4° C. Tumor tissues were collected and snap frozen in liquid nitrogen immediately after mice were sacrificed, and stored in -80° C. until use. […] Protein concentrations were determined by BCA assay (Thermo Fisher Scientific, Cat. #: 23225). Proteins were diluted in 1× Laemmli sample buffer, boiled at 95° C. for 5 minutes and 30 μg of total proteins were separated by using SDS-PAGE and analyzed by western blotting by standard procedures. […] Membranes were incubated overnight at 4° C. with gentle shaking with the following primary antibodies: […] ADI-SPA894), FTH (1:1000, Cell Signaling, Cat. #: 3998), AMPK (1:1000, Cell Signaling, Cat. #: 2532), phospho-[…] AMPK (1:1000, Cell Signaling, Cat. #: 2535), eIF2a (1:1000, Cell signaling, Cat. #: 5324), phospho […] eIF2a (1:1000, Cell signaling, Cat. #: 3597), AKT (1:1000, Cell Signaling, Cat. #: 9272), phospho-[…] […] Bands intensity was quantified with NIH Image J software (version 1.48v).

[4] = test system: phospho-AMPK (threonine 172); experiment: AMPK phosphorylation (western blot); type: cell-based, human; conditions: HCT116, STS 24 hours + vitamin C 350 μM 3 hours
Description: as §1

[5] = test system: Phosphorylated histone H2AX; experiment: Histone H2AX phosphorylation (DNA damage, western blot); type: cell-based, human and murine; conditions: HCT116 and CT26.WT, STS 24 hours + vitamin C 350 μM 3 hours
Description: as §1

[6] = intraperitoneal injection; Chen et al., 2007; 2008; cited from earlier work

Which results are given for `O=C1O[C@H]([C@@H](O)CO)C(O)=C1O` [vitamin C, ascorbic acid]?
sensitivity to vitamin C [1]: modest sensitivity; HO-1 mRNA and protein level (HO-1 [2]): significantly up-regulated HO-1 both at transcriptional and protein level; HO-1 protein expression level (HO-1 [3]): up-regulates HO-1 expression level; AMPK phosphorylation level [4]: strongly up-regulated AMPK phosphorylation level; DNA damage measured by phosphorylation level of histone H2AX [5]: strongly induced DNA damage; vitamin C level reached by parenteral (intraperitoneal) administration [6]: 3 mM
